{"source": "patent US20220125784A1", "about": "“METHODS AND COMPOUNDS FOR INHIBITION OF INACTIVATION OF VOLTAGE-GATED SODIUM CHANNELS” (SIMON FRASER UNIVERSITY, priority 2019, published 2022)", "assay_type_in_all_cases": "cell-based", "key": {"[1]": {"target": "T1, cardiac (Nav1.5) sodium channel (Homo sapiens, UniProt Q14524)", "T1 construct": "expressed in transfected cells", "T1 sequence (Q14524 whole entry)": "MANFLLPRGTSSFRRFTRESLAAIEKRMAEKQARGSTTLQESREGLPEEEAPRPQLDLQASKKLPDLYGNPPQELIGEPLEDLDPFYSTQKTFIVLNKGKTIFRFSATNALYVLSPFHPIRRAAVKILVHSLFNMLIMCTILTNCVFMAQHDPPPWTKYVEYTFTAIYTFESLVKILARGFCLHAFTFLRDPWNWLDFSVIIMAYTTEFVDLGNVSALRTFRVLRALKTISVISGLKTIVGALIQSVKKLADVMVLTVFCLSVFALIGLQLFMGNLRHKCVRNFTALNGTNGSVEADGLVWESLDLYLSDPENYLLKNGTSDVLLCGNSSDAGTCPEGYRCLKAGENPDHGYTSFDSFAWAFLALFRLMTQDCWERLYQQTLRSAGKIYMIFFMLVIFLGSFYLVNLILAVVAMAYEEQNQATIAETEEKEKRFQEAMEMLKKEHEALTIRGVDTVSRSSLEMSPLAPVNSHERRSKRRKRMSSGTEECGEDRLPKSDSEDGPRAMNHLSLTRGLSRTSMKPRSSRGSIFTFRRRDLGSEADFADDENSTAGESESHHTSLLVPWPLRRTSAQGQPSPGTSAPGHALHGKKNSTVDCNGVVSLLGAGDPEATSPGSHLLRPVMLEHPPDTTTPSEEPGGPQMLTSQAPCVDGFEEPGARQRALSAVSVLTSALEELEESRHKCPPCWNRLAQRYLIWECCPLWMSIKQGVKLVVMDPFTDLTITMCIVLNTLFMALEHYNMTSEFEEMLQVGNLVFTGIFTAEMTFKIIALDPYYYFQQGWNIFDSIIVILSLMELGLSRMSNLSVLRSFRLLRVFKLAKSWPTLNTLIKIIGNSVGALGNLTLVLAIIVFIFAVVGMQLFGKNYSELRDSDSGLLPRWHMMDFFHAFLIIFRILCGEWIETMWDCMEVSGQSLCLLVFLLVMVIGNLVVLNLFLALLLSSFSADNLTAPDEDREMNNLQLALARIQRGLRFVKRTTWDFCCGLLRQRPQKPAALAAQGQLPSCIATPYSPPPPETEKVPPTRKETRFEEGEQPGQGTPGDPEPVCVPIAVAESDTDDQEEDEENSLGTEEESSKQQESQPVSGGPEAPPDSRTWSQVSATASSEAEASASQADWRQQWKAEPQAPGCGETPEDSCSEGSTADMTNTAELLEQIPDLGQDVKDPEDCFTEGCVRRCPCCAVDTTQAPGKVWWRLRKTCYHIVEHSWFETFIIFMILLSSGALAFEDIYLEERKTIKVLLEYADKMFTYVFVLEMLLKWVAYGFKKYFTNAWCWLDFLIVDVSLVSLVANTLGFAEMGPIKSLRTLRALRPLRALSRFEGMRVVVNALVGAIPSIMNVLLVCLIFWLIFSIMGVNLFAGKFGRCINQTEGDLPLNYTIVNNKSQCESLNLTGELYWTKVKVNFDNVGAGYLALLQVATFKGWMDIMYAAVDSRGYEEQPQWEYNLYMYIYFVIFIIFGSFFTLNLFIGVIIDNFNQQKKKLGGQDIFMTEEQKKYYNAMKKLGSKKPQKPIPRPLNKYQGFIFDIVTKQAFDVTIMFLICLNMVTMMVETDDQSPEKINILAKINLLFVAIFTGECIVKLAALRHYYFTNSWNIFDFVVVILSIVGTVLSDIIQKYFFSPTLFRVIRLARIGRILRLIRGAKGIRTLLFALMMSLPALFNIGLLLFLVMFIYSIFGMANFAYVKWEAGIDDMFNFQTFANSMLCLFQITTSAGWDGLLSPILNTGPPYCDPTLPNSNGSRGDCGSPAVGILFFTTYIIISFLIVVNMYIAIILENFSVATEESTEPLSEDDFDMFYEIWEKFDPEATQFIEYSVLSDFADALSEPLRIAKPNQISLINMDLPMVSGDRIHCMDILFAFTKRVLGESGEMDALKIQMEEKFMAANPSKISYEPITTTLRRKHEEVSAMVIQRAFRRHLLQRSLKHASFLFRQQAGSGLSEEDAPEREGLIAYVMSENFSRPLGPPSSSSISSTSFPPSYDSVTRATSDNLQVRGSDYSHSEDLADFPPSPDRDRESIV", "experiment": "High-throughput patch clamp (QPatch/Qube 384), double voltage-pulse protocol, stable HEK293 Nav1.5", "conditions": "for deceleration of fast inactivation onset kinetics compared to control: preconditioning −120 mV", "method": "(§1) In another set of studies, we used high-throughput patch clamp techniques using the QPatch (Qube) 384 to screen compounds against both neuronal and cardiac sodium channels. We used a different electrophysiology assay (double voltage-pulse protocol; FIG. 3C) to detect potentiators, inhibitors, and compounds that do both. The protocol assesses these parameters at both rest and partially inactivated holding potentials. For this assay, we used nine compounds from Table 2 that were diluted to 50 μM in DMSO for biophysical assessment of channel gating. The extracellular solution used in these experiments was Ringer solution.\n(§2) The nine compounds were screened against the wild type (WT) cardiac (Nav1.5) and neuronal (Nav1.1) sodium channel α-subunits stably expressed in Human Embryonic Kidney (HEK293) along with the β1-subunit.\n(§3) Currents were assessed by a test pulse of 0 mV from a holding potential at rest (−120 mV) before preconditioning at the appropriate V1/2 for the sodium channel subtype (V1/2=−90 mV and V1/2=−65 mV for Nav1.5 and Nav1.1, respectively) for 10 s. Parameters were tested following 5 min of incubation with the compounds and normalized to control (vehicle). Peak current, the time constant of inactivation, and the area under the curve (AUC) were measured."}, "[2]": {"target": "T2, neuronal (Nav1.1) sodium channel (Homo sapiens, UniProt P35498)", "T2 construct": "expressed in transfected cells", "experiment": "High-throughput patch clamp (QPatch/Qube 384), double voltage-pulse protocol, stable HEK293 Nav1.1", "method": "as §1, §2, §3"}, "WT Nav1.5-α subunits [3]": {"target": "T3, WT Nav1.5-α subunits (Homo sapiens, UniProt Q14524)", "T3 construct": "expressed in transfected cells; host or cells: HEK293 (transient transfection)", "T3 sequence (Q14524 whole entry)": "as above", "experiment": "Whole-cell patch clamp, use-dependence (slow inactivation) protocol at 6 Hz in transiently transfected HEK293 cells", "method": "(§4) In one set of studies, we used a whole-cell patch clamp technique with single voltage-pulse protocols (FIGS. 3A-B) to characterize compounds ZINC38767171, ZINC39699427, ZINC40014265, ZINC64470729, ZINC64470737 and ZINC64470745. Whole-cell patch clamp was performed in extracellular solution containing (in mM): 140 NaCl, 4 KCl, 2 CaCl2, 1 MgCl2, and 10 HEPES (pH 7.4 adjusted with CsOH). The intracellular pipettes were dipped in dental wax and thermally polished to attain a resistance of 1.0-1.5 MΩ. The intracellular solutions contained (in mM): 130 CsF, 10 NaCl, 10 HEPES, and 10 EGTA titrated to pH 7.4. The six compounds, ZINC38767171, ZINC39699427, ZINC40014265, ZINC64470729, ZINC64470737 and ZINC64470745, chosen for electrophysiology characterization, ordered from MolPort (Easy compound ordering services), were diluted to 10 μM, 50 μM, and 100 μM in extracellular solution for biophysical assessment of channel gating.\n(§5) The six compounds were screened against wild type (WT) Nav1.5-α subunits at the optimal physiological temperature of 37° C. Human Embryonic Kidney (HEK293) cells were transfected with WT Nav1.5-α subunits (transient transfections). The α subunits were co-expressed with the β1 subunit and eGFP (enhanced green fluorescence protein) in a 2:1:2 ratio, respectively.\nSlow inactivation (SI) was indirectly determined by measuring use-dependence, which is a physiologically-relevant protocol. The protocol includes a series of 500 110 ms depolarizing pulses to 0 mV followed by a 55 ms-90 mV recovery pulse at a frequency 6 Hz. With repetitive depolarizations, Nav1.5 channels accumulate into slow inactivation."}, "WT Nav1.5-α subunits [4]": {"target": "T3, WT Nav1.5-α subunits", "experiment": "Whole-cell patch clamp, single voltage-pulse protocol (peak INa, conductance, fast inactivation) in transiently transfected HEK293 cells", "conditions": "for Peak INa −20 mV: normalized peak INa, 37° C.", "method": "as §4, §5\nConductance was measured by a protocol that depolarized the membrane from −100 mV to +80 mV in increments of +5 mV for 19 ms. Prior to the test pulse, channels were allowed to recover from fast inactivation at −130 mV for 197 ms. The tested compounds had no effect on the conductance midpoint (FIGS. 6A-F).\nAt voltages greater than −50 mV, the fast inactivation T values were calculated from the mono-exponential fit to the decay of sodium current."}, "[5]": {"conditions": "HEK293, holding potential −120 mV, read-out: Normalized inhibition of peak sodium current"}, "[6]": {"conditions": "50 μM, holding potential −120 mV"}}, "note": "Like-named read-outs stand apart in the source and are kept apart here.", "data": [{"smiles": "Cc1nc(-n2cccc2)sc1C(=O)N=c1[nH]c2ccccc2[nH]1", "note": "[ZINC12323863, N-(1H-benzimidazol-2-yl)-4-methyl-2-pyrrol-1-yl-thiazole-5-carboxamide]", "values": [{"measurement": "deceleration of fast inactivation onset kinetics compared to control", "setting": "[1]; 50 μM", "value": 1.5, "unit": "fold"}, {"measurement": "inhibition at 50 µM", "setting": "[1]; [5]", "value": "~32", "unit": "%"}, {"measurement": "inhibition at 50 µM", "setting": "[1]; HEK293, −90 mV for 10 s, read-out: Normalized inhibition of peak sodium current after 10 s pulse to mid-voltage potential", "value": "~80", "unit": "%"}, {"measurement": "effect on tau of inactivation from holding potential −120 mV", "setting": "[2]; 50 μM", "value": "accelerates inactivation"}, {"measurement": "normalized area under curve (AUC) ratio of activated sodium current", "setting": "[2]; [6]", "value": "substantially reduces"}, {"measurement": "inhibition at 50 µM", "setting": "[2]; [5]", "value": "~32", "unit": "%"}, {"measurement": "inhibition at 50 µM", "setting": "[2]; HEK293, −65 mV for 10 s, read-out: Normalized inhibition of peak sodium current after 10 s pulse to mid-voltage potential", "value": "~80", "unit": "%"}]}, {"smiles": "CN(C)[C@@H](CNC(=O)c1ccc2c(c1)=NC(=O)C(=O)N=2)c1ccco1", "note": "[ZINC40014265, N-[(2S)-2-(dimethylamino)-2-(2-furyl)ethyl]-2,3-dioxo-quinoxaline-6-carboxamide]", "values": [{"measurement": "effect on peak INa", "setting": "[1]; [6]", "value": "did not inhibit peak sodium current"}, {"measurement": "normalized area under curve (AUC) ratio of activated sodium current", "setting": "[1]; [6]", "value": "slightly increased"}, {"measurement": "deceleration of fast inactivation onset kinetics compared to control", "setting": "[1]; 50 μM", "value": 1.5, "unit": "fold"}, {"measurement": "UDI Block Slope", "setting": "WT Nav1.5-α subunits [3]; Hill curve slope", "value": 0.511}, {"measurement": "IC50", "setting": "WT Nav1.5-α subunits [3]; Hill curve, use-dependence at 6 Hz, read-out: UDI Block IC50", "value": 269, "unit": "µM"}, {"measurement": "% Block −20 mV", "setting": "WT Nav1.5-α subunits [4]; 10 μM", "value": "−20.00", "unit": "%"}, {"measurement": "fast inactivation onset time constant FI +10 mV", "setting": "WT Nav1.5-α subunits [4]; 10 μM", "value": "0.23 ± 0.02", "unit": "ms"}, {"measurement": "fast inactivation onset time constant FI −10 mV", "setting": "WT Nav1.5-α subunits [4]; 10 μM", "value": "0.33 ± 0.03", "unit": "ms"}, {"measurement": "fast inactivation onset time constant FI −30 mV", "setting": "WT Nav1.5-α subunits [4]; 10 μM", "value": "0.63 ± 0.07", "unit": "ms"}, {"measurement": "fast inactivation onset time constant FI −50 mV", "setting": "WT Nav1.5-α subunits [4]; 10 μM", "value": "2.98 ± 0.84", "unit": "ms"}, {"measurement": "Peak INa −20 mV", "setting": "WT Nav1.5-α subunits [4]; 10 μM", "value": "−0.80 ± 0.06"}, {"measurement": "% Block −20 mV", "setting": "WT Nav1.5-α subunits [4]; 50 μM", "value": "−37.00", "unit": "%"}, {"measurement": "fast inactivation onset time constant FI +10 mV", "setting": "WT Nav1.5-α subunits [4]; 50 μM", "value": "0.25 ± 0.03", "unit": "ms"}, {"measurement": "fast inactivation onset time constant FI −10 mV", "setting": "WT Nav1.5-α subunits [4]; 50 μM", "value": "0.37 ± 0.05", "unit": "ms"}, {"measurement": "fast inactivation onset time constant FI −30 mV", "setting": "WT Nav1.5-α subunits [4]; 50 μM", "value": "0.69 ± 0.11", "unit": "ms"}, {"measurement": "fast inactivation onset time constant FI −50 mV", "setting": "WT Nav1.5-α subunits [4]; 50 μM", "value": "2.18 ± 0.70", "unit": "ms"}, {"measurement": "Peak INa −20 mV", "setting": "WT Nav1.5-α subunits [4]; 50 μM", "value": "−0.63 ± 0.06"}, {"measurement": "% Block −20 mV", "setting": "WT Nav1.5-α subunits [4]; 100 μM", "value": "−41.00", "unit": "%"}, {"measurement": "fast inactivation onset time constant FI +10 mV", "setting": "WT Nav1.5-α subunits [4]; 100 μM", "value": "0.26 ± 0.07", "unit": "ms"}, {"measurement": "fast inactivation onset time constant FI −10 mV", "setting": "WT Nav1.5-α subunits [4]; 100 μM", "value": "0.37 ± 0.09", "unit": "ms"}, {"measurement": "fast inactivation onset time constant FI −30 mV", "setting": "WT Nav1.5-α subunits [4]; 100 μM", "value": "0.69 ± 0.17", "unit": "ms"}, {"measurement": "fast inactivation onset time constant FI −50 mV", "setting": "WT Nav1.5-α subunits [4]; 100 μM", "value": "2.17 ± 0.73", "unit": "ms"}, {"measurement": "Peak INa −20 mV", "setting": "WT Nav1.5-α subunits [4]; 100 μM", "value": "−0.59 ± 0.06"}, {"measurement": "Peak INa Slope", "setting": "WT Nav1.5-α subunits [4]; Hill curve slope", "value": 1.064}, {"measurement": "IC50", "setting": "WT Nav1.5-α subunits [4]; Hill curve, single voltage-pulse protocol", "value": 12.6, "unit": "µM"}]}]}
